# Test results reported in patent publication US20110144027A1, “PHARMACEUTICAL COMPOSITIONS FOR PROMOTING WOUND HEALING” (priority 2006, published 2011).
# Like-named read-outs stand apart in the source and are kept apart here.
# Columns and labels:
# [1] = Toxicokinetics after topical application on full-thickness wounds in minipigs; assay type: in vivo, Gottingen SPF minipigs; settings: for AUC(0-t) / Cmax / half-life / Tmax: Gottingen SPF, minipig, plasma, topical or ocular, 2000 ug/day, topical 2000 μg/day (500 μg/g Gel), Day 6; for AUC(0-t): read-out: AUC24 h (Mean ± CV); for Cmax: read-out: Cmax (Mean ± CV); for half-life: read-out: T1/2 (Mean ± CV) (converted); for Tmax: read-out: Tmax (Mean ± CV)
# From the text: (§1) Testing of concentrations of 2-[2-(4-Chlorophenyl)ethoxy]adenosine in blood plasma: 2-[2-(4-Chlorophenyl)ethoxy]adenosine concentrations in blood plasma taken from a patient may be quantitated. A non-limiting example of an assay to quantitate 2-[2-(4-Chlorophenyl)ethoxy]adenosine in blood plasma is an HPLC/MS/MS bioanalytical assay. The assay used an organic precipitation of protein accomplished with addition of acetonitrile to plasma followed by a thorough mixing and centrifugation to separate the denatured protein and supernatant. Aliquots of the supernatant were injected onto a HPLC system equipped with a triple quadrapole mass spectrometer which provided highly specific and sensitive detection of the molecular ion of interest. Concentrations of 2-[2-(4-Chlorophenyl)ethoxy]adenosine were determined from peak area ratios of 2-[2-(4-Chlorophenyl)ethoxy]adenosine and the internal standard using weighted linear regression curves (1/×). The assay was highly robust and reproducible within the validated range of 1.0 to 100 ng/mL.
# The objective of this study was to assess the local and the systemic toxicity of the 2-[2-(4-chlorophenyl)ethoxy]adenosine formulation of the instant invention. The testing occurred in Gottingen SPF minipigs. 20 μg/g, 100 μg/g and 500 μg/g concentration of the 2-[2-(4-chlorophenyl)ethoxy]adenosine formulation were created using the methods described in Example I. The 20 μg/g and 100 μg/g formulation are described below. The components of the 500 μg/g formulation and the placebo control were as described in Example 1.
# The total dosage of 2-[2-(4-chlorophenyl)ethoxy]adenosine per minipig ranged from 80 μg to 2000 μg/day. The formulation was administered topically once per day in 1 mL (1 g) doses at 20 μg/g, 100 μg/g and 500 μg/g concentration per wound per administration on surgically established full-thickness wounds until wound closure. Each minipig had multiple (4) wounds that received treatment.
# A total of 40 Gottingen SPF minipigs (20 males and 20 females) were included in the study. The animals were allocated into four groups each of 4 males and 4 females. In addition, 4 animals (2 of each sex per group), were included as recovery animals for the control/placebo group (Group 1) and the high-dose group (Group 4).
# From Day 1 through Day 13, 2-[2-(4-chlorophenyl)ethoxy]adenosine formulation at either 20 μg/g, 100 μg/g or 500 μg/g concentration was applied topically on surgically established circular full-thickness wounds (wound diameter 20 mm; 4 wounds per animal) on a daily basis in a dose volume of approximately 1 mL per wound until wound closure. The dose levels and animal numbers are provided Table 20.
# Toxicokinetic sampling occurred on Day 6 at the following time points: pre-treatment, and 0.5, 1, 3, 5, 7, 9, 12 and 24 hours post-treatment. […] Non-compartmental pharmacokinetic analysis of plasma 2-[2-(4-chlorophenyl)ethoxy]adenosine concentration profiles in Groups 2, 3, and 4 (low-, mid- and high-dose) animals yielded pertinent pharmacokinetic parameters, which are summarized by treatment and gender in Table 20.
# wound [2] = settings: healthy BALB/C mice; cited from earlier work
# [3] = Systemic absorption in patients (plasma HPLC/MS/MS assay); assay type: in vivo, human; settings: any topical dose concentration (5, 50, 500 μg/g), initial, day 16 and day 28, LLOQ 1.0 ng/mL
# From the text: as §1
# 2-[2-(4-Chlorophenyl)ethoxy]adenosine was administered to patients with chronic, neuropathic, diabetic foot ulcers (DFU). […]
# wound [4] = settings: rats; cited from earlier work
SMILES,AUC(0-t) ([1]; Female minipigs) [ng·h/mL],Cmax ([1]; Female minipigs) [ng/mL],half-life ([1]; Female minipigs) [h],Tmax ([1]; Female minipigs) [h],AUC(0-t) ([1]; Male minipigs) [ng·h/mL],Cmax ([1]; Male minipigs) [ng/mL],half-life ([1]; Male minipigs) [h],Tmax ([1]; Male minipigs) [h],"absorption into the systemic circulation from topical administration in open wounds ([1]; minipigs, wound healing phase, 80-2000 μg/day)",wound healing (wound [2]),"systemic absorption (blood plasma, HPLC/MS/MS assay) [3]",rate of wound closure (wound [4])
Nc1nc(OCCc2ccc(Cl)cc2)nc2c1ncn2[C@@H]1O[C@H](CO)[C@@H](O)[C@H]1O [2-[2-(4-chlorophenyl)ethoxy]adenosine],6.65,0.45,28.4,7.5,7.25,0.46,122,7.8,minimal,promote wound healing,No systemic absorption,
"CCNC(=O)[C@H]1O[C@@H](n2cnc3c(N)nc(NCCc4ccc(CCC(=O)O)cc4)nc32)[C@H](O)[C@@H]1O [CGS 21680, 2-[p-(carboxyethyl)phenylethylamino]-5′-N-ethylcarboxamidoadenosine]",,,,,,,,,,,,increase the rate of wound closure
